The assay addresses fluorescein labeled GRE2 sequence dsDNA (F-GRE2). In words: Total fluorescence quenching (energy transfer) of fluorescein labeled DNA. In kind it is binding. As for the experimental part:
Fluorescence Measurements. Steady state fluorescence anisotropy measurements were carried out in 20 mM Tris (pH 7.9), 30 mM NaCl, 20 mM KCl, 1 mM MgCl2, and 5% glycerol. […] DNA samples used were either the non-labeled sequences shown in FIG. 2 or a fluorescein labeled duplex with a sequence matching GRE2 (FIG. 2).
For fluorescein labeled DNA measurements, the excitation wavelength was 491 nm and the emission was recorded at 521 nm with a 1.0 nm slit width. Titrations were performed holding the concentration of fluorescein-labeled DNA constant and increasing the concentration of TO, ZF or TO-ZF as indicated. To correct for the small amount of background fluorescence from TO in these measurements, control experiments were performed in parallel using DNA that was not fluorescein labeled, but was otherwise identical to the labeled DNA fragments. The thiazole orange fluorescence intensity measured in the control experiments was subtracted from the total fluorescence intensity for each data point. Under the excitation conditions of these measurements, the contribution to fluorescence by TO at 521 nm was less than 5% of the maximum fluorescence signal observed in the experiment. Even at the point in the titration where the maximum quenching of fluorescein fluorescence was observed (the point of lowest total fluorescence in the measurement), less than half of the fluorescence was due to TO, and this could accurately be removed by subtraction of the control value. Each point is an average of 60 measurements, and each titration was performed independently three times.
Total fluorescence data were collected in parallel to the anisotropy measurements and were calculated from raw data as the fluorescence intensity in the vertical plane plus two times the fluorescence intensity of the horizontal plane, (TF=Ivv+2Ivh). These values were used to determine the percent of the maximum fluorescence for each point along the titration and fit to equation 2. [formula] […]
Fluorescence changes upon binding of TO, ZF and TO-ZF to GRE containing duplex DNA. Equilibrium binding of the non-labeled zinc finger (ZF), unconjugated thiazole orange (TO) and thiazole orange-zinc finger conjugate (TO-ZF) to fluorescein labeled GRE2 sequence dsDNA was measured by both fluorescence anisotropy and total fluorescence. […] For fluorescein fluorescence, excitation was at 491 nm and emission was detected at 521 nm. […] Changes in the steady-state anisotropy of the fluorescein fluorescence from the labeled GRE sequence containing DNA (F-GRE2) can arise from two sources. […] By comparison, the amino acid zinc finger Xfin-31 was determined to have a dissociation constant of approximately 1 μM, M. S. Lee, et al., FEBS 279:289-294 (1991), whereas, the 66 amino acid zinc finger from GATA-1 has a dissociation constant of 10 nM. […]

Consider “TO-ZF: 29 amino acid single zinc finger from residues 438-465 of glucocorticoid receptor, thiazole orange coupled to a lysine ε-amine”, for which the Kd (1 nM F-GRE2, read-out: dissociation constant from quenching curve, two-state binding model) worked out at 14 nM. Besides, the “change in total fluorescein fluorescence over the titration” value (excitation 491 nm, emission 521 nm) is given as “large decreases in steady state fluorescence”.

Values taken from patent US6348317B1, “Fluorescent and DNA cleavage properties of peptide/dye conjugates” (The Arizona Board of Regents, priority 1999, dated 2002).
